Measurements as given in US20110212972A1, “Compositions and Methods for Treating Female Sexual Dysfunction” (Pfizer Inc, priority 2000, published 2011).

Legend:
MCF-7 cells = experiment: Inhibition of in vitro human breast tumor cell growth, ER-positive MCF-7; format: cell-based; settings: MCF-7 (ER-positive), 6 days incubation, direct cell counts
Description: (§1) The in vitro antiproliferative effects of (−)-cis-6-phenyl-5-[4-(2-pyrrolidin-1-yl-ethoxy)-phenyl]-5,6,7,8-tetrahydro-naphthalene-2-ol (PPTN) were tested using two types of human breast cancer cell lines: first, MCF-7 cells, which contain ER as well as progesterone receptors (PgR), and second, MDA-MB-231 cells, which lack ER and PgR, and enable the determination of an effect that is independent of the ER mechanism. The effect of PPTN on the growth of these different cell lines was determined by incubation of the cells with various compound concentrations for 6 days.
(§2) The antiproliferative effects were then determined by direct cell counts.

MDA-MB-231 cells = experiment: Inhibition of in vitro human breast tumor cell growth, ER-negative MDA-MB-231; format: cell-based; settings: MDA-MB-231 (ER-negative), 6 days incubation, direct cell counts
Description: as §1, §2

Oc1ccc2c(c1)CC[C@H](c1ccccc1)[C@@H]2c1ccc(OCCN2CCCC2)cc1 [PPTN, (−)-cis-6-phenyl-5-[4-(2-pyrrolidin-1-yl-ethoxy)-phenyl]-5,6,7,8-tetrahydro-naphthalene-2-ol]
IC50 for growth inhibition (MCF-7 cells): 3 to 5×10^−11 M | effect on cell growth (MCF-7 cells): inhibited the growth | effect on cell proliferation (MDA-MB-231 cells): did not inhibit cell proliferation
